The target in series [1] is p38 MAP Kinase a (Homo sapiens (Human), UniProt Q16539). As to the kind of experiment: p38 MAP kinase enzyme assay (radiometric filter-binding). The series is classed as biochemical. The method, then:
The ability of compounds to inhibit p38 MAP a Kinase activity was measured in an assay performed by Upstate (Dundee UK). In a final reaction volume of 25 μL, p38 MAP Kinase a (5-10 mU) is incubated with 25 mM Tris pH 7.5, 0.002 mMEGTA, 0.33 mg/mL myelin basic protein, 10 mM MgAcetate and [g-33p-ATP] (specific activity approx. 500 cpm/pmol, concentration as required). The reaction is initiated by the addition of the MgATP mix. After incubation for 40 minutes at room temperature, the reaction is stopped by the addition of 5 μL of a 3% phosphoric acid solution. 10 μL of the reaction is then spotted onto a P30 filtermat and washed three times for 5 minutes in 75 mM phosphoric acid and once in methanol prior to drying and scintillation counting.
Duplicate data points are generated from a 1/3 log dilution series of a stock solution in DMSO. Nine dilutions steps are made from a top concentration of 10 μM, and a ‘no compound’ blank is included. The standard radiometric filter-binding assay is performed at an ATP concentration at, or close to, the Km. Data from scintillation counts are collected and subjected to free-fit analysis by Prism software.

Series [2] deals with THP-1 cells. As to the kind of experiment: LPS-stimulation of THP-1 cells, TNF-α levels by ELISA. Conditions: Homo sapiens, THP-1; LPS 1 μg/ml, 6 hrs; read-out: C—ester TNF-alpha inhibition (THP-1 cells), IC50. The series is classed as cell-based. How it is done: THP-1 cells were plated in 100 μl at a density of 4×10^4 cells/well in V-bottomed 96 well tissue culture treated plates and incubated at 37° C. in 5% CO2 for 16 hrs. 2 hrs after the addition of the inhibitor in 100 μl of tissue culture media, the cells were stimulated with LPS (E coli strain 005:B5, Sigma) at a final concentration of 1 μg/ml and incubated at 37° C. in 5% CO2 for 6 hrs. TNF-α levels were measured from cell-free supernatants by sandwich ELISA (R&D Systems #QTA00B).

The subject of series [3] is human whole blood. Briefly: LPS-stimulation of human whole blood, TNF-α levels by ELISA. It counts as cell-based. To be noted: for pIC50: Homo sapiens, LPS 100 ng/ml, 6 hrs, read-out: D—ester TNF-alpha inhibition (human whole blood), IC50. The method, then: Whole blood was taken by venous puncture using heparinised vacutainers (Becton Dickinson) and diluted in an equal volume of RPMI1640 tissue culture media (Sigma). 100 μl was plated in V-bottomed 96 well tissue culture treated plates. 2 hrs after the addition of the inhibitor in 100 μl of RPMI1640 media, the blood was stimulated with LPS (E coli strain 005:B5, Sigma) at a final concentration of 100 ng/ml and incubated at 37° C. in 5% CO2 for 6 hrs. TNF-α levels were measured from cell-free supernatants by sandwich ELISA (R&D Systems #QTA00B).

Series [4] can be described thus: Plasma exposure in mice. The series is classed as in vivo. To be noted: mouse, po 10 mg/kg, male CD1 mice. The method, then:
The compounds were formulated in 8% DMSO, 92% 11.25% hydroxypropyl-β-cyclodextrin in water using the following procedure: the compounds were fully dissolved in 100% DMSO and then the hydroxypropyl-β-cyclodextrin solution added. The fine precipitate formed was re-dissolved by the addition of aqueous HCl and the pH adjusted to 4 with aqueous sodium hydroxide.
Each compound was administered orally at 10 mg/kg, in a total dose volume of 5 ml/kg, to male CD1 mice ([…]). Three mice were used for each time point. Blood samples were taken at the following time points: 5, 15, 30, 60, 120, 240 and 360 minutes, by terminal cardiac puncture, under halothane/isofluorane anaesthesia. Blood samples were collected into pre-chilled tubes containing NaF/EDTA and mixed. Samples were spun at 7-7.5×g for 2 minutes. The plasma was aspirated and frozen.
Plasma samples were prepared by precipitation of protein using three volumes of acetonitrile containing the internal standard. The supernatants were analysed by LCMS (Sciex API 3000, HP1100 binary pump, CTC PAL). The chromatography was based on an Acentis C8 (50×2.1 mm) column and a mobile phase of 5-95% acetonitrile in water/0.1% formic acid.
Exposure (AUC) was calculated from the plasma concentration versus time profile using PK Solutions 2.0 (Summit Research Services, Montrose, Colo.).

Where [5] appears, read: corresponding acid (hydrolysis product of the named ester) tested, read-out: B—acid enzyme assay (p38 kinase A (invitrogen)), IC50.
Setting [6] is: ester tested, read-out: A—ester enzyme assay (p38 kinase A (invitrogen)), IC50.

pIC50: −log10 of the molar value. Read-outs that look alike come from different tables or passages of the source.

p38 MAP Kinase a, sequence (Q16539 whole entry): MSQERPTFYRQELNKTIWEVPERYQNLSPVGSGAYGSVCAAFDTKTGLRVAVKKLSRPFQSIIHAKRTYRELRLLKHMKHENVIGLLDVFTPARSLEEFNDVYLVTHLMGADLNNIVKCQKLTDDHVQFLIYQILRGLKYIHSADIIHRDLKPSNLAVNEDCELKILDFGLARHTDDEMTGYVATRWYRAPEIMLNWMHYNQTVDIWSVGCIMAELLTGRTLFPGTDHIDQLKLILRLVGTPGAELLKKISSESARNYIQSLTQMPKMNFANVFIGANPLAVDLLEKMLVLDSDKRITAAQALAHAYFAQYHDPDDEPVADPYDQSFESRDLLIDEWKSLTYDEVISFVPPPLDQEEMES

A word on the pIC50: it is the negative decadic logarithm of the IC50, by convention in mol/L. Usually AUC(0-t) stands for the area under the concentration-time curve up to a stated or last time point. High values mean high exposure, low ones low exposure. With `CC(C)C[C@H](NCCc1cc(F)c(-n2c(N)c(C(=O)c3ccc(F)cc3F)ccc2=O)c(F)c1)C(=O)OC1CCCC1` [cyclopentyl N-(2-{4-[6-amino-5-(2,4-difluoro-benzoyl)-2-oxopyridin-1(2H)-yl]-3,5-difluoro-phenyl}ethyl)-L-leucinate], the pIC50 in series [1] (setting [5]) is 9.00; in series [1] (setting [6]), 6.64; in series [2] it was 9.30; in series [3], 7.27. The molecule also yielded an AUC(0-t) in series [4] of 14 ng·h/mL.

As to `C[C@H](NCCc1cc(F)c(-n2c(N)c(C(=O)c3ccc(F)cc3F)ccc2=O)c(F)c1)C(=O)OC(C)(C)C` [tert-Butyl N-(2-{4-[6-amino-5-(2,4-difluorobenzoyl)-2-oxopyridin-1(2H)-yl]-3,5-difluorophenyl}ethyl)-L-alaninate], the negative logarithm of the IC50 (pIC50) in series [1] (setting [5]) is 9.00; in series [1] (setting [6]), 7.92; in series [2], 8.80; in series [3], 7.59. Also, the AUC(0-t) in series [4] came to 102 ng·h/mL.

`CC(C)C[C@H](NCCc1ccc(-n2c(N)c(C(=O)c3ccc(F)cc3)ccc2=O)cc1)C(=O)OC(C)(C)C` [tert-Butyl N-[2-(4-{6-amino-5-[(4-fluoro-phenyl)carbonyl]-2-oxopyridin-1(2H)-yl}phenyl)ethyl]-L-leucinate]: the pIC50 in series [1] (setting [5]) is 6.93; in series [1] (setting [6]) it was 6.14; in series [2], 7.72; in series [3] it was 6.02.

As to `CC(C)C[C@@H](NCCc1cc(F)c(-n2c(N)c(C(=O)c3ccc(F)cc3F)ccc2=O)c(F)c1)C(=O)OC(C)(C)C` [tert-butyl N-(2-{4-[6-amino-5-(2,4-difluoro-benzoyl)-2-oxopyridin-1(2H)-yl]-3,5-difluoro-phenyl}ethyl)-D-leucinate], the pIC50 in series [1] (setting [5]) is 8.70; in series [1] (setting [6]), 6.78; in series [2], 7.09. In series [3] (@ 10 μm), the “D—ester TNF-alpha inhibition (human whole blood), % at single concentration” value is listed as 0% @ 10 μm.

With `CC(C)C[C@H](NCCc1cc(F)c(-n2c(N)c(C(=O)c3ccc(F)cc3F)ccc2=O)c(F)c1)C(=O)OC(C)(C)C` [tert-butyl N-(2-{4-[6-amino-5-(2,4-difluoro-benzoyl)-2-oxopyridin-1(2H)-yl]-3,5-difluorophenyl}ethyl)-L-leucinate], the pIC50 in series [1] (setting [5]) was 9.00; in series [1] (setting [6]) it was 6.92; in series [2], 8.52; in series [3], 6.72. In series [4], the AUC(0-t) was determined as 75 ng·h/mL.

Consider `C[C@H](NCCc1ccc(-n2c(N)c(C(=O)c3ccc(F)cc3F)ccc2=O)cc1)C(=O)OC(C)(C)C` [tert-butyl N-[2-(4-{6-amino-5-[(2,4-difluoro-phenyl)carbonyl]-2-oxopyridin-1(2H)-yl}phenyl)ethyl]-L-alaninate], for which the pIC50 in series [1] (setting [5]) was 7.24; in series [1] (setting [6]), 7.24; in series [2] it was 8.55; in series [3], 6.71.

The record behind these values is patent publication US9388136B2, “Tert-butyl N-[2-{4-[6-amino-5-(2,4-difluorobenzoyl)-2-oxopyridin-1(2H)-yl]-3,5-difluorophenyl}ethyl]-L-alaninate or a salt, hydrate or solvate thereof” (Chroma Therapeutics Ltd., priority 2012, dated 2016).
